Measured values from US7537906B2, “Apoptosis inducer and method of screening for a substance inhibiting acylated homoserine lactone” (priority 2003, dated 2009).

What was measured:
TNF-α = details: mouse macrophage culture system; cited from earlier work
Akt = Akt activity (phospho-Akt) by Western blot in CaCo-2 cells; assay type: cell-based, human; details: stimulation at 10 μM
IL-8 = details: human alveolar cells; cited from earlier work
JNK = assay: MAP kinase activity by Western blot in CaCo-2 cells: phosphorylated JNK; assay type: cell-based, human; details: 10 minutes
Protocol: A CaCo-2 carcinoma cell line of human colon cancer was purchased from American Type Culture Collection (ATCC), and cultured at 37° C. in the presence of 5% CO2 using a DMEM medium containing 10% FCS, 1% NEAA and 1% P/S (100 units/ml penicillin and 100 μg/ml streptomycin).
6×10^5 CaCo-2 cells were inoculated per dish using 6 cm dishes (NUNC), washed twice with phosphate buffered saline (PBS) (-), and then cultured in a serum-free DMEM medium containing 1% NEAA for 24 hours. Subsequently, at a final concentration of 100 μM, homoserine lactone hydrochloride and N-(3-oxododecanoyl)-L-homoserine lactone were each added, and then each solution was allowed to react for 10 minutes. […]
After reaction, the product was washed twice with cold PBS (-), and then frozen at −80° C. […] Concentration of the collected protein was measured, and then the protein equivalent to 50 μg was subjected to SDS-PAGE. […] When phosphorylated ERK, JNK, p38 and Akt were measured, blocking was carried out with 0.1% Tween 20 (TBS-T) containing 5% skim milk/Tris-buffered saline. […]
After cell culture, MAP kinase activity and Akt activity were analyzed by Western blot in a manner similar to that used in (1), except that N-(3-oxododecanoyl)-L-homoserine lactones in final concentrations of 0 μM (0.25% DMSO), 1 μM, 10 μM, 30 μM and 100 μM were each added and each solution was allowed to react for 10 minutes (FIG. 8).

caspase-3 = assay: Caspase activity by Western blot (cleaved caspase-3) in CaCo-2 cells; assay type: cell-based, human
Protocol: (§1) The activities of caspase (caspase-3 and caspase-9) and PARP (poly-ADP ribose polymerase) were measured in a manner similar to those in Examples 1 and 2 by Western blot analysis using each of anti-activated (cleaved) caspase antibodies, that is, an anti-cleaved caspase-3 antibody, an anti-cleaved caspase-9 antibody (D330) and an anti-cleaved PARP antibody (D214).
(§2) N-(3-oxododecanoyl)-L-homoserine lactones with final concentrations of 30 μM and 100 μM were each added to cultured CaCo-2 cells. Caspase-3, caspase-9 and PARP activities were analyzed over time by Western blot at 0 hours, 1 hour, 2 hours, 4 hours, 6 hours, 8 hours and 10 hours after culture. […] Whereas at 30 μM, activated caspase-3 began to be detected 1 hour after stimulation and the activity lasted until 4 hours after stimulation, at 100 μM the activity peaked at 6 hours and lasted until 10 hours after stimulation. Cleaved caspase-9 and cleaved PARP were detected by reprobing each membrane.
(§3) Next, 3 hours of reaction with N-(3-oxododecanoyl)-L-homoserine lactone was carried out at concentrations of 0, 1, 10, 30, and 100 μM, and then caspase and PARP activities were measured.

CaCo-2 cells = assay: Evaluation of apoptosis by DNA fragmentation (DNA ladder); assay type: cell-based, human; details: CaCo-2 cells cultured for 12 hours, 0-100 μM
Protocol: 5×10^6 CaCo-2 cells were inoculated per 15 cm dish (NUNC), washed twice with PBS (-), and then cultured in a serum-free DMEM medium containing 1% NEAA for 24 hours. N-(3-oxododecanoyl)-L-homoserine lactone was added at each concentration (1 μM to 100 μM), followed by 12 hours of culture. Subsequently, the supernatant and the cells removed from the dish using TE were centrifuged at room temperature at 800 rpm for 5 minutes, and the supernatant was removed. The cells were suspended with 300 μl of PBS (-), and then the suspension was centrifuged again at 4° C. at 2500 rpm for 5 minutes, and the supernatant was removed. The cells were lysed by the addition of 300 μl of a cytolysis buffer [10 mM Tris-HCl (pH 7.4), 10 mM EDTA (pH 8.0), 0.5% Triton X-100], and then allowed to stand on ice for 10 minutes, thereby extracting DNA fragments. The extract was centrifuged at 4° C. at 14000 rpm for 10 minutes. RNase A was added to the obtained supernatant, and then incubation was carried out at 37° C. for 1 hour. Proteinase K was further added, and then incubation was carried out at 50° C. for 30 minutes. The extract of the DNA fragments was concentrated by ethanol precipitation, and then electrophoresis was carried out using 2% agarose gel. After the gel was stained with ethidium bromide, DNA fragmentation was detected under a UV transilluminator.

caspase-9 = assay: Caspase activity by Western blot (cleaved caspase-9) in CaCo-2 cells; assay type: cell-based, human
Protocol: as §1, §2, §3

[1] = 3 hours of reaction, 0, 1, 10, 30 and 100 μM

Compound: CCCCCCCCCC(=O)CC(=O)N[C@H]1CCOC1=O [N-(3-oxododecanoyl)-L-homoserine lactone]
- TNF-α production (TNF-α): promotes
- inhibition of Akt activity lasted until (after stimulation) (Akt): 6 h
- IL-8 production (IL-8): stimulates
- JNK activity, concentration dependence (JNK; 0-100 μM): no concentration-dependent significant difference
- activation of JNK (JNK; 100 μM): promoted
- caspase-3 activity lasted until (after stimulation) (caspase-3; 30 μM): 4 h
- time at which activated caspase-3 began to be detected after stimulation (caspase-3; 30 μM): 1 h
- caspase-3 activity lasted until (after stimulation) (caspase-3; 100 μM): 10 h
- time of peak caspase-3 activity (caspase-3; 100 μM): 6 h
- concentration at which cleaved caspase (caspase-3) was detected (caspase-3; [1]): ≥ 30 µM
- concentration at which the DNA ladder was observed (CaCo-2 cells): ≥ 30 µM
- caspase-9 activity over time (caspase-9; 30 μM): strong at 1, 2 and 4 hours
- weak caspase-9 activity lasted until (after stimulation) (caspase-9; 30 μM): 8 h
- strong caspase-9 activity lasted until (after stimulation) (caspase-9; 100 μM): 8 h
- concentration at which cleaved caspase (caspase-9) was detected (caspase-9; [1]): ≥ 30 µM
